Drawing on ChEMBL document CHEMBL1133764, “Synthesis and cytokine modulation properties of pyrrolo[2, 3-d]-4-pyrimidone nucleosides” (2000), this text covers Concentration and IFN gamma concentration for 27 compounds.

In test [1] the test system is T-cell line. Briefly: Effect at 10 uM on PMA/ION-stimulated T-cell expression of the type 2 cytokine IL-4, determined in cell free supernatants by ELISA. Format: functional, cell-based. Particulars: Homo sapiens. On the technique in general: ELISA stands for enzyme-linked immunosorbent assay.
The subject of test [2] is T-cell line. Briefly: Effect at 10 uM on PMA/ION-stimulated T-cell expression of the type 1 cytokine IFNgamma, determined in cell free supernatants by ELISA. The format is functional, cell-based. The conditions noted are these: Homo sapiens.
For test [3], the system named is T-cell line. Kind of test: Effect (10 uM) on PMA/ION-stimulated T-cell expression of the type 2 cytokine IL-4, which was determined in cell free supernatants by ELISA. The format is functional, cell-based. Particulars: Homo sapiens.
The subject of test [4] is T-cell line. Kind of test: Effect (10 uM) on PMA/ION-stimulated T-cell expression of the type 1 cytokine IFN gamma, which was determined in cell free supernatants by ELISA. The format is functional, cell-based. The conditions noted are these: Homo sapiens.
Test [5] relates to T-cell line. Kind of test: Effect on PMA/ION-stimulated T-cell expression of the type 1 cytokine,IL-5 was determined in cell free supernatants by ELISA. Format: functional, cell-based. Particulars: Homo sapiens.
In test [6] the test system is T-cell line. Briefly: Effect (10 uM) on PMA/ION-stimulated T-cell expression of the type 2 cytokine, IL-4 was determined in cell free supernatants by ELISA. Format: functional, cell-based. Particulars: Homo sapiens.
In test [7] the test system is T-cell line. Kind of test: Effect on PMA/ION-stimulated T-cell expression of the type 1 cytokine, IFNgamma was determined in cell free supernatants by ELISA. Format: functional, cell-based. Particulars: Homo sapiens.
Test [8] has as its system T-cell line. Kind of test: Effect on PMA/ION-stimulated T-cell expression of the type 1 cytokine,TNF-alpha was determined in cell free supernatants by ELISA. Particulars: Homo sapiens. Format: functional, cell-based.
For test [9], the system named is T-cell line. Briefly: Effect on PMA/ION-stimulated T-cell expression of the type 1 cytokine,IL-2 was determined in cell free supernatants by ELISA. The format is functional, cell-based. Particulars: Homo sapiens.
Test [10] deals with T-cell line. Briefly: (§1) Effect (10 uM) on PMA/ION-stimulated T-cell expression of the type 1 cytokine, IFNgamma was determined in cell free supernatants by ELISA. The format is functional, cell-based. Particulars: Homo sapiens.
Test [11] concerns T-cell line. Briefly: Effect (10 uM) on PMA/ION-stimulated T-cell expression of the type 1 cytokine,TNF-alpha was determined in cell free supernatants by ELISA. Format: functional, cell-based. The conditions noted are these: Homo sapiens.
Test [12] deals with T-cell line. Briefly: Effect (10 uM) on PMA/ION-stimulated T-cell expression of the type 1 cytokine, IL-5 was determined in cell free supernatants by ELISA. Format: functional, cell-based. The conditions noted are these: Homo sapiens.
For test [13], the system named is T-cell line. Kind of test: Effect (10 uM) on PMA/ION-stimulated T-cell expression of the type 1 cytokine,IL-2 was determined in cell free supernatants by ELISA. Format: functional, cell-based. The conditions noted are these: Homo sapiens.
For test [14], the system named is T-cell line. Briefly: Effect (10 uM) on PMA/ION-stimulated T-cell expression of the type 1 cytokine TNF-alpha, which was determined in cell free supernatants by ELISA. The format is functional, cell-based. Particulars: Homo sapiens.
Test [15] relates to T-cell line. Briefly: Effect (10 uM) on PMA/ION-stimulated T-cell expression of the type 1 cytokine IFNgamma, which was determined in cell free supernatants by ELISA. The format is functional, cell-based. Particulars: Homo sapiens.
The test system of test [16] is T-cell line. Briefly: Effect (10 uM) on PMA/ION-stimulated T-cell expression of the type 1 cytokine IL-2, which was determined in cell free supernatants by ELISA. Format: functional, cell-based. The conditions noted are these: Homo sapiens.
The test system of test [17] is T-cell line. Kind of test: Effect (10 uM) on PMA/ION-stimulated T-cell expression of the type 2 cytokine IL-5, which was determined in cell free supernatants by ELISA. Format: functional, cell-based. The conditions noted are these: Homo sapiens.
Test [18] concerns T-cell line. Described as §1. The format is functional, Homo sapiens.

`N=C(NN)c1cn([C@@H]2O[C@H](CO)[C@@H](O)[C@H]2O)c2nc[nH]c(=O)c12`: the results for the Concentration in the test on T-cell line [1] and in the test on T-cell line [2] were 207 pg/mL and 11900 pg/mL, respectively.
On to `N/C(=N\O)c1cn([C@@H]2O[C@H](CO)[C@@H](O)[C@@H]2O)c2nc[nH]c(=O)c12`, for which the Concentration in the test on T-cell line [3] was found to be 132 pg/mL; with T-cell line [4] it was 10400 pg/mL.
With `NCc1cn([C@@H]2O[C@H](CO)[C@@H](O)[C@H]2O)c2nc[nH]c(=O)c12`, the Concentration in the test with T-cell line [1] stood at 125 pg/mL; in the test on T-cell line [2] it was 9340 pg/mL.
For the compound `C[C@@H](O)[C@H]1OC(n2cc(C(=N)NO)c3c(O)ncnc32)[C@H](O)[C@@H]1O` (stereo not given in full), the Concentration in the test with T-cell line [3] came to 186 pg/mL; with T-cell line [4], 12300 pg/mL.
Take `N=C(NN)c1cn([C@@H]2O[C@H](CO)[C@@H](O)[C@@H]2O)c2nc[nH]c(=O)c12`: the Concentration in the test with T-cell line [1] is 117 pg/mL; in the test on T-cell line [2], 9860 pg/mL.
Turning to `C[C@H]1OC(n2cc(C(=N)NO)c3c(O)ncnc32)[C@H](O)[C@@H]1O` (single isomer, unassigned; (+)), the Concentration with T-cell line [3] was found to be 149 pg/mL; in the test on T-cell line [4], 10600 pg/mL.
The like results for `N/C(=N\O)c1cn([C@H]2O[C@@H](CO)[C@H](O)[C@@H]2O)c2nc[nH]c(=O)c12` were, in that order, 142 pg/mL and 9660 pg/mL.
As for `C[C@H](O)[C@H]1OC(n2cc(C(=N)NO)c3c(O)ncnc32)[C@H](O)[C@@H]1O` (single isomer, unassigned; (+)), the Concentration with T-cell line [3] was 162 pg/mL; in the test on T-cell line [4], 11400 pg/mL.
Regarding `C[C@H]1OC(n2cc(C(=N)N)c3c(O)ncnc32)[C@H](O)[C@@H]1O` (single isomer, unassigned; (+)), the Concentration turned out to be 152 pg/mL in the test on T-cell line [1] and 1310 pg/mL in the test with T-cell line [2].
As to `N=C(N)c1cn(C2CCC(CO)O2)c2ncnc(O)c12` (single isomer, unassigned; (+)), the Concentration came out at 234 pg/mL in the test on T-cell line [3] and 13300 pg/mL in the test on T-cell line [4].
Consider `C[C@H](O)[C@H]1OC(n2cc(C(=N)N)c3c(O)ncnc32)[C@H](O)[C@@H]1O` (single isomer, unassigned; (+)), for which the figures for the Concentration in the test on T-cell line [1] and in the test with T-cell line [2] were 146 pg/mL and 10700 pg/mL, respectively.
On the same counts, the results for `C[C@@H](O)[C@H]1OC(n2cc(C#N)c3c(O)ncnc32)[C@H](O)[C@@H]1O` (stereo not given in full) are 160 pg/mL and 13300 pg/mL.
As for `CCCCCCCCCCCCC(=O)O[C@@H]1[C@@H](C)[C@@]2(O)[C@@H](C=C(CO)C[C@]3(O)C(=O)C(C)=C[C@@H]23)[C@@H]2C(C)(C)[C@]12OC(C)=O.C[C@H](CCC(=O)O)C[C@H](C)C[C@H](C)/C(O)=C/C(=O)[C@H](C)C[C@H](C)C/C=C/[C@@H](C)[C@@H](O)[C@@H](C)[C@@H](O)C[C@@H]1CC[C@@](C)([C@H]2CC[C@@](C)([C@@H](C)O)O2)O1`, the Concentration in the test with T-cell line [5] is 93 pg/mL; with T-cell line [6], 162 pg/mL; in the test with T-cell line [7] it was 10400 pg/mL; in the test with T-cell line [8], 2150 pg/mL; with T-cell line [9], 27700 pg/mL; with T-cell line [2], 10400 pg/mL.
`C[C@H](O)[C@H]1OC(n2cc(C#N)c3c(O)ncnc32)[C@H](O)[C@@H]1O` (single isomer, unassigned; (+)): the figures for the Concentration with T-cell line [1] and with T-cell line [2] were 146 pg/mL and 10900 pg/mL, respectively.
The like results for `C[C@@H](O)[C@H]1OC(n2cc(C(=N)N)c3c(O)ncnc32)[C@H](O)[C@@H]1O` (single isomer, unassigned; (+)) were, in that order, 159 pg/mL and 12100 pg/mL.
Turning to `C[C@]1(CO)OC(n2cc(C(=N)N)c3c(O)ncnc32)[C@H](O)[C@@H]1O` (single isomer, unassigned; (+)), the Concentration with T-cell line [3] is 144 pg/mL; in the test with T-cell line [4], 9550 pg/mL.
As for `C[C@H]1OC(n2cc(C#N)c3c(O)ncnc32)[C@H](O)[C@@H]1O` (single isomer, unassigned; (+)), the Concentration was 147 pg/mL with T-cell line [1] and 9140 pg/mL in the test with T-cell line [2].
On the same counts, the results for `N=C(N)c1cn([C@@H]2O[C@H](CO)[C@@H](O)[C@@H]2O)c2nc[nH]c(=O)c12` are 131 pg/mL and 7790 pg/mL.
Consider `NC(=O)c1cn(C2O[C@H](CO)[C@@H](O)[C@H]2O)c2ncnc(O)c12` (single isomer, unassigned; (+)), for which the Concentration in the test with T-cell line [10] was 9140 pg/mL; in the test with T-cell line [1], 183 pg/mL; with T-cell line [11] it was 2170 pg/mL; in the test on T-cell line [12] it was 67 pg/mL; with T-cell line [13], 24400 pg/mL.
In the case of `N/C(=N\O)c1cn([C@@H]2O[C@H](CO)[C@@H](O)[C@H]2O)c2nc[nH]c(=O)c12`, the Concentration amounted to 1590 pg/mL with T-cell line [14]; 236 pg/mL in the test on T-cell line [3]; 7270 pg/mL in the test on T-cell line [15]; 18000 pg/mL with T-cell line [16]; 73 pg/mL in the test on T-cell line [17].
Compound `N=C(N)c1cn([C@@H]2O[C@H](CO)[C@@H](O)[C@H]2O)c2nc[nH]c(=O)c12` registered an IFN gamma concentration in the test with T-cell line [18] of less than 5919 pg/mL. Moreover, the Concentration with T-cell line [1] is less than 557 pg/mL; in the test with T-cell line [11], less than 968 pg/mL; in the test on T-cell line [12], less than 127 pg/mL; in the test on T-cell line [13], less than 12700 pg/mL.
Consider `NC(=S)c1cn(C2O[C@H](CO)[C@@H](O)[C@H]2O)c2ncnc(O)c12` (stereo not given in full), for which the Concentration in the test with T-cell line [5] stood at 59 pg/mL; with T-cell line [1], 176 pg/mL; in the test on T-cell line [7] it was 7480 pg/mL; with T-cell line [8], 2220 pg/mL; in the test with T-cell line [9], 23000 pg/mL.
`N/C(=N\O)c1cn(C2CCC(CO)O2)c2ncnc(O)c12` (single isomer, unassigned; (+)): the values for the Concentration with T-cell line [3] and in the test on T-cell line [4] were 152 pg/mL and 11200 pg/mL, respectively.
With `NCc1cn([C@@H]2O[C@H](CO)[C@@H](O)[C@@H]2O)c2nc[nH]c(=O)c12`, the Concentration with T-cell line [1] came out at 142 pg/mL; with T-cell line [2], 10800 pg/mL.
On the same counts, the results for `N#CC1=CN([C@H]2C[C@H](O)[C@@H](CO)O2)C2=NC=NC(=O)C12` (single isomer, unassigned; (+)) are 194 pg/mL and 11900 pg/mL.
On to `C[C@]1(CO)OC(n2cc(C#N)c3c(O)ncnc32)[C@H](O)[C@@H]1O` (single isomer, unassigned; (+)), for which the results for the Concentration in the test with T-cell line [1] and with T-cell line [2] were 147 pg/mL and 9030 pg/mL, respectively.
On to `N=C(N)C1=CN([C@H]2C[C@H](O)[C@@H](CO)O2)C2=NC=NC(=O)C12` (single isomer, unassigned; (+)), for which the Concentration with T-cell line [3] was 258 pg/mL; with T-cell line [4] it was 14700 pg/mL.
